Measured values: patent US20260035338A1, “AMINO LIPID COMPOUND AND LIPID NANOPARTICLE FOR DELIVERING BIOACTIVE INGREDIENT” (SHENZHEN SHENXIN BIOTECHNOLOGY CO., LTD., priority 2022, published 2026)

Test system: BALB/c mice
Assay: In vivo delivery of Fluc mRNA-encapsulating LNP formulations, luciferase signal by In Vivo Imaging System (IVIS)
Conditions: tail vein injection (IV) 70 μL, female BALB/c mice, 6 hours after injection; for Average number of photons (Total in-vivo flux): LNP formulation encapsulating Fluc mRNA (Lipid:DSPC:CHO-HP:M-DMG-2000 48:10:40.5:1.5); for Average number of photons (Liver) / Average number of photons (Spleen): LNP formulation encapsulating Fluc mRNA
Description: Animal preparation: Female BALB/c mice of 6-8 weeks old were selected and raised in an SPF grade breeding room. Animal testing was conducted in strict accordance with the guidelines of national health institutions and animal ethics requirements.
In vivo Delivery: prior to injection of the test LNP formulation, the LNP formulation was gently and repeatedly inverted to thoroughly mix the sample of the formulation. A corresponding amount of the LNP formulation was aspirated with a 1 ml insulin syringe, and the LNP formulation was injected by tail vein injection (IV), with 3 mice in duplicate per formulation. Each mouse was injected with 70 μL of the corresponding LNP formulation encapsulating the luciferase mRNA (Fluc mRNA) prepared in Experimental Example 1.
6 hours after injection of LNP formulations, mice were injected with 200 μL D-Luciferin luciferase developing substrate (Catalog No. 122799; Manufacturer: Perkin Elmer). After the substrate was injected, the mice were anesthetized with isoflurane inhalation, and the injection time of luciferase developing substrate was recorded.
The encapsulation efficiency of the lipid nanoparticle encapsulating luciferase mRNA (Fluc mRNA) with a representative amino lipid compound and the fluorescence expression intensity induced by the same are shown in Table 4, with the LNP formulation containing SM-102, 1001 or ALC-0315 as a control LNP formulation. The preparation method of the control LNP formulation was basically the same as that of the LNP formulations in Experimental Example 1, with the difference lying in that the amino lipid compounds of the present disclosure were replaced with SM-102, 1001 or ALC-0315 in the preparation of the control LNP formulation.

## CCCCCOC(CCCCCOC(=O)CCCCCCCCC(CCCCCCCCC(=O)OCCCCCC(OCCCCC)OCCCCC)OC(=O)OCCCN(CC)CC)OCCCCC [compound 390]
  Average number of photons (Total in-vivo flux): 5.23E+07
  Average number of photons (Liver): 7.04E+06
  Average number of photons (Spleen): 3.84E+05

## CCCCCCOC(CCCCOC(=O)CCCCCCCCC(CCCCCCCCC(=O)OCCCCC(OCCCCCC)OCCCCCC)OC(=O)OCCCN(C)C)OCCCCCC [compound 2036]
  Average number of photons (Total in-vivo flux): 5.60E+07
  Average number of photons (Liver): 1.04E+07
  Average number of photons (Spleen): 5.75E+05

## CCCCCCOC(CCCOC(=O)CCCCCCCCC(CCCCCCCCC(=O)OCCCC(OCCCCCC)OCCCCCC)OC(=O)NCCCN1CCCCC1C)OCCCCCC (stereo not drawn) [compound 399]
  Average number of photons (Total in-vivo flux): 9.00E+07
  Average number of photons (Liver): 1.96E+07
  Average number of photons (Spleen): 2.05E+06

## CCCCCCCCCOC(CCCOC(=O)CCCCCCCCC(CCCCCCCCC(=O)OCCCC(OCCCCCCC)OCCCCCCCC)OC(=O)OCCCN(CC)CC)OCCCCCCCCC (stereo not drawn) [compound 869]
  Average number of photons (Total in-vivo flux): 1.22E+07
  Average number of photons (Liver): 2.15E+06
  Average number of photons (Spleen): 5.40E+04

## CCCCCCOC(CCOC(=O)CCCCCCCCC(CCCCCCCCC(=O)OCCC(OCCCCCC)OCCCCCC)OC(=O)OCCCN(C)C)OCCCCCC [compound 2035]
  Average number of photons (Total in-vivo flux): 1.49E+08
  Average number of photons (Liver): 3.12E+07
  Average number of photons (Spleen): 7.61E+05

## CCCCCCOC(CCCOC(=O)CCCCCCCCC(CCCCCCCCC(=O)OCCCC(OCCCCCC)OCCCCCC)OC(=O)OCCC1CCCN1C)OCCCCCC (stereo not drawn) [compound 398]
  Average number of photons (Total in-vivo flux): 1.79E+08
  Average number of photons (Liver): 2.78E+07
  Average number of photons (Spleen): 6.36E+05

## CCCCCCOC(CCCOC(=O)CCCCCCCCC(CCCCCCCCC(=O)OCCCC(OCCCCC)OCCCCC)OC(=O)OCCCN(CC)CC)OCCCCCC (stereo not drawn) [compound 861]
  Average number of photons (Total in-vivo flux): 6.67E+07
  Average number of photons (Liver): 1.17E+07
  Average number of photons (Spleen): 3.52E+05

## CCCCCCOC(CCCOC(=O)CCCCCCCCC(CCCCCCCCC(=O)OCCCC(OCCCCCC)OCCCCCC)N(CCCN(C)C)C(=O)CCC)OCCCCCC [compound 452]
  Average number of photons (Total in-vivo flux): 3.27E+08
  Average number of photons (Liver): 4.94E+07
  Average number of photons (Spleen): 2.22E+07

## CCCCCCOC(CCCOC(=O)CCCCCCCCC(CCCCCCCCC(=O)OCCCC(OCCCCCC)OCCCCCC)NC(=O)OCCCN(CC)CC)OCCCCCC [compound 393]
  Average number of photons (Total in-vivo flux): 2.80E+08
  Average number of photons (Liver): 5.44E+07
  Average number of photons (Spleen): 1.00E+07

## CCCCCCCCCCCOC(=O)CCCCCN(CCO)CCCCCCCC(=O)OC(CCCCCCCC)CCCCCCCC [SM-102, reference compound]
  Average number of photons (Total in-vivo flux): 3.00E+08
  Average number of photons (Liver): 6.19E+07
  Average number of photons (Spleen): 6.42E+06

## CCCCCCCCCOC(CCCOC(=O)CCCCCCCCC(CCCCCCCCC(=O)OCCCC(OCCCCCC)OCCCCCC)OC(=O)OCCCN(C)C)OCCCCCCCCC (stereo not drawn) [compound 856]
  Average number of photons (Total in-vivo flux): 3.40E+07
  Average number of photons (Liver): 9.34E+06
  Average number of photons (Spleen): 3.58E+05

## CCCCCCC#CCCOC(=O)CCCCCCCOC(=O)CCCCCCCCC(CCCCCCCCC(=O)OCCCC(OCCCCCC)OCCCCCC)OC(=O)OCCCN(CC)CC (stereo not drawn) [compound 437]
  Average number of photons (Total in-vivo flux): 1.66E+07
  Average number of photons (Liver): 2.66E+06
  Average number of photons (Spleen): 2.62E+06

## CCCCCCCCCOC(CCCOC(=O)CCCCCCCCC(CCCCCCCCC(=O)OCCCC(OCCCCC)OCCCCC)OC(=O)OCCCN(CC)CC)OCCCCCCCCC (stereo not drawn) [compound 864]
  Average number of photons (Total in-vivo flux): 3.66E+07
  Average number of photons (Liver): 6.58E+06
  Average number of photons (Spleen): 2.33E+05

## CCCCCCCCC(CCCCCC)C(=O)OCCCCCCN(CCCCO)CCCCCCOC(=O)C(CCCCCC)CCCCCCCC (stereo not drawn) [ALC-0315, reference compound]
  Average number of photons (Total in-vivo flux): 6.39E+08
  Average number of photons (Liver): 1.23E+08
  Average number of photons (Spleen): 3.45E+06

## CCCCCCCOC(CCCOC(=O)CCCCCCCCC(CCCCCCCCC(=O)OCCCC(OCCCCC)OCCCCC)OC(=O)OCCCN(CC)CC)OCCCCCCC (stereo not drawn) [compound 862]
  Average number of photons (Total in-vivo flux): 8.57E+07
  Average number of photons (Liver): 1.53E+07
  Average number of photons (Spleen): 6.67E+05

## CCCCCCCCOC(CCCOC(=O)CCCCCCCCC(CCCCCCCCC(=O)OCCCC(OCCCCCCCC)OCCCCCCCC)OC(=O)OCCCN(CC)CC)OCCCCCCCC [compound 859]
  Average number of photons (Total in-vivo flux): 2.31E+07
  Average number of photons (Liver): 3.71E+06
  Average number of photons (Spleen): 7.21E+04

## CCCCCCCCOC(CCCOC(=O)CCCCCCCCC(CCCCCCCCC(=O)OCCCC(OCCCCC)OCCCCC)OC(=O)OCCCN(CC)CC)OCCCCCCCC (stereo not drawn) [compound 863]
  Average number of photons (Total in-vivo flux): 4.43E+07
  Average number of photons (Liver): 7.13E+06
  Average number of photons (Spleen): 2.88E+05

## CCCCCCOC(CCCOC(=O)CCCCCCC(CCCCCCC(=O)OCCCC(OCCCCCC)OCCCCCC)OC(=O)OCCCN(C)C)OCCCCCC [compound 2040]
  Average number of photons (Total in-vivo flux): 1.53E+08
  Average number of photons (Liver): 2.97E+07
  Average number of photons (Spleen): 1.11E+07

## CCCCCCOC(CCCOC(=O)CCCCCCCCC(CCCCCCCCC(=O)OCCCC(OCCCCCC)OCCCCCC)OC(=O)OCC1CCCN(C)C1)OCCCCCC (stereo not drawn) [compound 416]
  Average number of photons (Total in-vivo flux): 2.16E+08
  Average number of photons (Liver): 5.13E+07
  Average number of photons (Spleen): 3.99E+06

## CCCCCCCCOCCCC(=O)N(CCCN(C)C)C(CCCCCCCCC(=O)OCCCC(OCCCCCC)OCCCCCC)CCCCCCCCC(=O)OCCCC(OCCCCCC)OCCCCCC [compound 449]
  Average number of photons (Total in-vivo flux): 1.65E+08
  Average number of photons (Liver): 2.94E+07
  Average number of photons (Spleen): 7.31E+06

## CCCCCCOC(CCCOC(=O)CCCCCCCCC(CCCCCCCCC(=O)OCCCC(OCCCCCC)OCCCCCC)N(CCCN(C)C)C(C)=O)OCCCCCC [compound 451]
  Average number of photons (Total in-vivo flux): 2.86E+07
  Average number of photons (Liver): 4.63E+06
  Average number of photons (Spleen): 1.74E+07

## CCCCCCOC(CCC(=O)OCC(COC(=O)CCC(OCCCCCC)OCCCCCC)COC(=O)OCCCN(C)C)OCCCCCC [compound 2021]
  Average number of photons (Total in-vivo flux): 4.49E+06
  Average number of photons (Liver): 1.19E+06
  Average number of photons (Spleen): 1.04E+06

## CCCCCCOC(CCCOC(=O)CCCCCCCCC(CCCCCCCCC(=O)OCCCC(OCCCCCC)OCCCCCC)N(CCCN(C)C)C(=O)COC)OCCCCCC [compound 450]
  Average number of photons (Total in-vivo flux): 4.38E+07
  Average number of photons (Liver): 7.96E+05
  Average number of photons (Spleen): 3.18E+06

## CCCCCCOC(CCCOC(=O)CCCCCCCCC(CCCCCCCCC(=O)OCCCC(OCCCCCC)OCCCCCC)OC(=O)N(CCCC(=O)OCCCCC)CCCN(C)C)OCCCCCC [compound 380]
  Average number of photons (Total in-vivo flux): 4.05E+08
  Average number of photons (Liver): 7.25E+07
  Average number of photons (Spleen): 6.79E+07

## CCCCCCOC(CCCNC(=O)OCCCCCCCC(CCCCCCCCCOC(=O)NCC(OCCCCCC)OCCCCCC)OC(=O)OCCCN(CC)CC)OCCCCCC (stereo not drawn) [compound 459]
  Average number of photons (Total in-vivo flux): 3.42E+07
  Average number of photons (Liver): 5.09E+06
  Average number of photons (Spleen): 2.52E+06

## CCCCCCCOC(CCCOC(=O)CCCCCCCCC(CCCCCCCCC(=O)OCCCC(OCCCCCCC)OCCCCCCC)OC(=O)N(CCCC(=O)OCCCCC)CCCN(C)C)OCCCCCCC [compound 381]
  Average number of photons (Total in-vivo flux): 2.46E+08
  Average number of photons (Liver): 4.40E+07
  Average number of photons (Spleen): 1.96E+07

## CCCCCCCCCOC(CCCOC(=O)CCCCCCCCC(CCCCCCCCC(=O)OCCCC(OCCCCCC)OCCCCCC)OC(=O)OCCCN(CC)CC)OCCCCCCCCC (stereo not drawn) [compound 867]
  Average number of photons (Total in-vivo flux): 2.15E+07
  Average number of photons (Liver): 4.12E+06
  Average number of photons (Spleen): 1.36E+05

## CCC/C=C\COC(CCCOC(=O)CCCCCCCCC(CCCCCCCCC(=O)OCCCC(OC/C=C\CCC)OC/C=C\CCC)OC(=O)OCCCN(CC)CC)OC/C=C\CCC [compound 392]
  Average number of photons (Total in-vivo flux): 8.20E+07
  Average number of photons (Liver): 1.50E+07
  Average number of photons (Spleen): 6.65E+05

## CCCCCCOC(CCCOC(=O)CCCCCCCCC(CCCCCCCCC(=O)OCCCCCCCC(=O)OCC)OC(=O)OCCCN(CC)CC)OCCCCCC (stereo not drawn) [compound 436]
  Average number of photons (Total in-vivo flux): 2.50E+07
  Average number of photons (Liver): 6.68E+06
  Average number of photons (Spleen): 5.08E+05

## CCCCC/C=C\C/C=C\CCCCCCCC(=O)OCC(COC(=O)CCC(OCCCCCCCC)OCCCCCCCC)COC(=O)OCCCN(CC)CC (stereo not drawn) [compound 1001, reference compound]
  Average number of photons (Total in-vivo flux): 9.68E+07
  Average number of photons (Liver): 9.38E+06
  Average number of photons (Spleen): 1.65E+07
